Measurements taken from the supplement of paper PMC10307832.

Columns and labels:
Test in all cases: relative viability (nuclei count vs DMSO), 5 days (fraction); higher = more cells survive
[1] = compound: CN(c1ncccc1CNc1nc(Nc2ccc3c(c2)CC(=O)N3)ncc1C(F)(F)F)S(C)(=O)=O + Cc1nc(Nc2ncc(C(=O)Nc3c(C)cccc3Cl)s2)cc(N2CCN(CCO)CC2)n1 [Dasatinib] (partner 0.075 µM)
Procedure, shortened: (§1)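 Lung cancer cell lines were seeded in 1536-well plates and dosed by pin tool the next day, with either a single drug or a fixed anchor-drug dose combined with five library-drug doses (not always all listed) spaced in √10 steps. Five days later, one step fixed the cells and stained their nuclei (final 0.05% Triton X-100, 1% formaldehyde, 1 ug/ml Hoechst), and nuclei were counted on 4× images. Relative viability is the nuclei count in treated wells divided by the count in vehicle wells, and each value is the median of duplicate plates.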

[2] = compound: CN(c1ncccc1CNc1nc(Nc2ccc3c(c2)CC(=O)N3)ncc1C(F)(F)F)S(C)(=O)=O + Cc1cc(Nc2cc(N3CCN(C)CC3)nc(Sc3ccc(NC(=O)C4CC4)cc3)n2)n[nH]1 [Tozasertib] (partner 0.1 µM)
Procedure, shortened: as §1

[3] = compound: CN(c1ncccc1CNc1nc(Nc2ccc3c(c2)CC(=O)N3)ncc1C(F)(F)F)S(C)(=O)=O + Cc1nc(NC(=O)N2CCC[C@H]2C(N)=O)sc1-c1ccnc(C(C)(C)C(F)(F)F)c1 [Alpelisib] (partner 2 µM)
Procedure, shortened: as §1

[4] = compound: CN(c1ncccc1CNc1nc(Nc2ccc3c(c2)CC(=O)N3)ncc1C(F)(F)F)S(C)(=O)=O + CCNC(=O)c1noc(-c2cc(C(C)C)c(O)cc2O)c1-c1ccc(CN2CCOCC2)cc1 [Luminespib] (partner 0.01 µM)
Procedure, shortened: as §1

Cell Line | relative viability ([1]; first compound 0.01 µM) | relative viability ([1]; first compound 0.03162 µM) | relative viability ([1]; first compound 0.1 µM) | relative viability ([1]; first compound 0.3162 µM) | relative viability ([1]; first compound 1 µM) | relative viability ([2]; first compound 0.01 µM) | relative viability ([2]; first compound 0.03162 µM) | relative viability ([2]; first compound 0.1 µM) | relative viability ([2]; first compound 0.3162 µM) | relative viability ([2]; first compound 1 µM) | relative viability ([3]; first compound 0.01 µM) | relative viability ([3]; first compound 0.03162 µM) | relative viability ([3]; first compound 0.1 µM) | relative viability ([3]; first compound 0.3162 µM) | relative viability ([3]; first compound 1 µM) | relative viability ([4]; first compound 0.01 µM) | relative viability ([4]; first compound 0.03162 µM) | relative viability ([4]; first compound 0.1 µM) | relative viability ([4]; first compound 0.3162 µM) | relative viability ([4]; first compound 1 µM)
201T | 0.602 | 0.55 | 0.45 | 0.538 | 0.517 | 0.921 | 1 | 0.912 | 0.845 | 0.894 | 1.01 | 0.989 | 0.971 | 0.968 | 0.976 | 1.05 | 1 | 0.945 | 0.986 | 0.951
A-427 | 0.628 | 0.864 | 0.713 | 0.823 | 0.725 | 0.223 | 0.191 | 0.207 | 0.186 | 0.211 | 1.09 | 1.15 | 1.02 | 1.15 | 1.08 | 0.908 | 1.1 | 0.832 | 0.921 | 0.905
ABC-1 | 0.574 | 0.633 | 0.559 | 0.54 | 0.587 | 0.173 | 0.161 | 0.158 | 0.137 | 0.172 | 0.777 | 1.22 | 1.36 | 0.963 | 0.913 | 0.557 | 0.985 | 0.511 | 0.524 | 0.516
BEN | 0.319 | 0.312 | 0.272 | 0.289 | 0.267 | 0.416 | 0.562 | 0.506 | 0.541 | 0.471 | 1.02 | 1.2 | 1.02 | 1.05 | 1.03 | 0.392 | 0.313 | 0.863 | 0.289 | 0.328
CAL-12T | 0.35 | 0.213 | 0.268 | 0.191 | 0.136 | 0.271 | 0.249 | 0.274 | 0.271 | 0.209 | 1.12 | 1.58 | 1.26 | 1.16 | 0.946 | 0.284 | 0.55 | 0.451 | 0.258 | 0.277
COR-L23 | 0.458 | 0.524 | 0.483 | 0.413 | 0.323 | 0.184 | 0.195 | 0.186 | 0.146 | 0.129 | 0.742 | 0.846 | 0.713 | 0.647 | 0.702 | 0.622 | 1 | 0.656 | 0.734 | 0.41
COR-L 105 | 0.274 | 0.25 | 0.343 | 0.282 | 0.288 | 0.365 | 0.322 | 0.341 | 0.399 | 0.247 | 1.06 | 1.16 | 1.13 | 0.887 | 0.872 | 0.691 | 0.712 | 0.809 | 0.766 | 0.526
Calu-6 |  |  |  |  |  |  |  |  |  |  | 0.914 | 0.977 | 0.903 | 1.55 | 0.765 |  |  |  |  | 
ChaGo-K-1 | 0.656 | 0.531 | 0.52 | 0.614 | 0.531 | 0.233 | 0.231 | 0.223 | 0.236 | 0.205 |  |  |  |  |  | 0.479 | 0.629 | 0.635 | 0.706 | 0.556
EKVX | 0.464 | 0.425 | 0.447 | 0.411 | 0.347 | 0.456 | 0.428 | 0.454 | 0.339 | 0.316 | 0.771 | 0.905 | 0.859 | 0.812 | 0.864 | 0.923 | 1.03 | 0.839 | 0.869 | 0.786
EMC-BAC-2 | 0.247 | 0.308 | 0.279 | 0.295 | 0.271 | 0.302 | 0.283 | 0.287 | 0.255 | 0.246 | 0.761 | 0.811 | 0.68 | 0.698 | 0.676 | 1.16 | 1.27 | 1.17 | 1.16 | 0.994
EPLC-272H | 0.338 | 0.27 | 0.218 | 0.209 | 0.135 | 0.346 | 0.234 | 0.314 | 0.278 | 0.182 | 0.811 | 1.1 | 0.781 | 0.885 | 0.927 | 0.6 | 0.487 | 0.265 | 0.317 | 0.251
H3255 | 0.368 | 0.347 | 0.356 | 0.385 | 0.378 | 0.808 | 0.599 | 0.775 | 0.571 | 0.51 | 1.04 | 0.853 | 0.617 | 0.468 | 0.772 | 1.03 | 0.963 | 0.796 | 0.933 | 0.904
HARA | 0.228 | 0.17 | 0.19 | 0.201 | 0.217 | 0.11 | 0.117 | 0.116 | 0.0944 | 0.0785 | 0.733 | 0.79 | 0.744 | 0.695 | 0.625 | 0.589 | 0.887 | 0.602 | 0.606 | 0.549
HCC-15 | 0.541 | 0.602 | 0.497 | 0.428 | 0.408 | 0.418 | 0.555 | 0.44 | 0.32 | 0.254 | 0.849 | 0.892 | 0.819 | 0.785 | 0.779 | 0.543 | 0.456 | 0.349 | 0.407 | 0.301
HCC-44 |  |  |  |  |  | 1.02 | 0.926 | 0.94 |  | 0.804 | 0.872 | 0.792 | 0.789 | 0.824 | 0.778 | 1.04 | 1.5 | 1.24 |  | 0.933
HCC-78 | 0.312 | 0.33 | 0.325 | 0.256 | 0.296 | 0.463 | 0.428 | 0.427 | 0.45 | 0.332 | 0.368 | 0.407 | 0.285 | 0.361 | 0.31 |  |  |  |  | 
HCC-366 | 0.541 | 0.904 | 0.598 | 0.644 | 0.687 | 0.129 | 0.143 | 0.126 | 0.0925 | 0.0651 | 0.35 | 0.471 | 0.455 | 0.389 | 0.309 |  |  |  |  | 
